Experiments:
[1] = system: Tagia sp.; conditions: for LC50: acute, duration: 14 days, mortality; for NOEC: chronic/long-term, duration: 8 weeks
[2] = system: Folsomia candida; conditions: chronic/long-term, duration: 28 days
[3] = system: Hypoaspis aculeifer; conditions: acute, duration: 14 days
[4] = system: Apis mellifera; conditions: acute, duration: 72 hours, mortality
[5] = system: Colinus virginianus; conditions: acute, oral
[6] = system: Coturnix japonica; conditions: reproduction developmental; duration: 6 weeks
[7] = system: Daphnia magna; conditions: chronic/long-term; duration: 21 days; mobility
[8] = system: Lepomis macrochirus; conditions: acute; duration: 96 hours; mortality
[9] = system: Oncorhynchus mykiss
[10] = system: Oryctolagus sp.
[11] = system: Rattus norvegicus
[12] = system: Aphidius rhopalosiphi; test: LR50; higher = less toxic; conditions: acute; duration: 48 hours; mortality
[13] = system: Typhlodromus pyri; test: LR50; higher = less toxic; conditions: chronic/long-term; duration: 7 days; mortality

What does the source list for `NS(=O)(=O)c1ccccc1C(=O)O` [2-Sulfamoylbenzoic acid]?
LC50 [1]: > 1000 mg/kg; NOEC [1]: 1000 mg/kg

Which results are given for `CCOc1nc(NC)nc(NC(N)=O)n1` [Ethametsulfuron methyl metabolite (IN-B9161)]?
NOEC [2]: 76.9 mg/kg; NOEC [3]: 76.9 mg/kg

For `CCOc1nc(NC)nc(NC(=O)NS(=O)(=O)c2ccccc2C(=O)OC)n1` [Ethametsulfuron-methyl], which LD50 ([4]; dermal) is on record?
Its LD50 is 4.62 µg/piece.

What about the LD50 ([4]; oral, unspecified) of the same compound?
The LD50 was 40.8 µg/piece.

What about the LD50 ([5]; duration: 5 days, diet) of the same compound?
Its LD50 is over 1160 mg/kg-day.

And the LD50 [5]?
Its LD50 is 2250 mg/kg-day.

And the NOEC [6]?
The NOEC was 229 mg/kg-day.

What about the NOEC [7] of the same compound?
The NOEC was 4.7 mg/L.

What about the NOEC ([2]; reproduction) of the same compound?
The NOEC was 100 mg/kg.

What about the NOEC ([3]; reproduction) of the same compound?
The NOEC was 100 mg/kg.

And the LC50 [8]?
Its LC50 is over 123 µg/mL.

What about the LC50 ([9]; acute, duration: 96 hours, mortality) of the same compound?
The LC50 was over 126 µg/mL.

What about the NOEC ([9]; chronic/long-term, duration: 87 days, growth) of the same compound?
The NOEC was 5.4 mg/L.

What about the LOAEL ([10]; developmental, development) of the same compound?
The LOAEL was 250 mg/kg-day.

And the NOAEL ([10]; reproduction developmental, organ weight)?
The NOAEL was 250 mg/kg-day.

What about the LD50 ([11]; acute, oral, mortality) of the same compound?
Its LD50 is over 5000 mg/kg-day.

And the NOAEL ([11]; chronic, duration: 2 years, clinical chemistry)?
The NOAEL was 21 mg/kg-day.

What about the LC50 [1] of the same compound?
The LC50 was 116 mg/kg.

What about the NOEC ([1]; reproduction) of the same compound?
Its NOEC is 27.3 mg/kg.

And the LR50 [12]?
The LR50 was over 18.8 g/ha.

And the LR50 [13]?
Its LR50 is over 11.4 g/ha.

For `CCOc1nc(N)nc(NC(=O)NS(=O)(=O)c2ccccc2C(=O)OC)n1` [N-Demethyl ethametsulfuronmethyl], which NOEC [2] is on record?
The NOEC was 50 mg/kg.

And the LC50 [1]?
Its LC50 is over 100 mg/kg.

Source: EPA's ToxValDB 9.5 (doi:10.2903/j.efsa.2014.3787)
